≈ marks a conversion by molar mass, not a printed value.
Key:
Solubility in water = assay type: physicochemical; settings: for Solubility in water, result: water at 37° C., sampling 5 hours, UV detection
From the text: Solubility in Water [table]

[1] = Stability of the first crystal modification on storage (X-ray diffraction pattern); assay type: physicochemical; settings: +40° C./75% relative humidity
[2] = tested on: humans who suffer from rheumatic arthritis; assay: Efficacy in humans who suffer from rheumatic arthritis; assay type: in vivo; settings: drug comprising an effective content
[3] = Stability of the first crystal modification on storage (X-ray diffraction pattern); assay type: physicochemical
Method: Stability of the First Crystal Modification Samples of The first crystal modification were prepared as in Example 1 and were stored at various temperatures at atmospheric humidity. After the stated times, samples were taken and an X-ray diffraction pattern was prepared as in Example 1. […] For preparing the calibration curve for the quantitative determination, the reflection at 2θ=8.35° was used for phase 1 and the reflection at 2θ=16.1° was used for phase 2. The ratios of the corresponding peak heights were calculated and were correlated with the contents of phase 2. The limit of the method is 0.3%. The sample after storage for 1 month at 60° C. contains about 76% of the second crystal modification according to this method.

| water solubility (amount that can be dissolved) (Solubility in water; water, 37° C.) [µg/mL] | Crystal modification ([1]; 1 month) | Crystal modification ([1]; 3 months) | Crystal modification ([1]; 6 months) | solubility (Solubility in water; water, 37 °C, water, thermodynamic from solid, water, 37° C., read-out: water solubility (amount that can be dissolved)) [µg/mL] | Crystal modification ([3]; 1 month, +25° C.) | Crystal modification ([3]; 1 month, +40° C.) | Crystal modification ([3]; 1 month, −15° C.) | Crystal modification ([3]; 3 months, +25° C.) | Crystal modification ([3]; 3 months, +40° C.) | Crystal modification ([3]; 3 months, +60° C.) | Crystal modification ([3]; 3 months, −15° C.) | Crystal modification ([3]; 6 months, +25° C.) | Crystal modification ([3]; 6 months, +40° C.) | Crystal modification ([3]; 6 months, −15° C.) | stability (not converted into the second crystal modification) ([3]; temperature range from −15° C. to +40° C.) | SMILES | Solubility in water, result (Solubility in water) | efficacy in comparison with a drug comprising the second crystal modification [2] |
| --- | --- | --- | --- | --- | --- | --- | --- | --- | --- | --- | --- | --- | --- | --- | --- | --- | --- | --- |
| 25 (≈ 92.5 µM) |  |  |  |  |  |  |  |  |  |  |  |  |  |  |  | Cc1oncc1C(=O)Nc1ccc(C(F)(F)F)cc1 [second crystal modification, N-(4-trifluoromethylphenyl)-5-methylisoxazole-4-carboxamide] | 25 mg dissolved in 1 liter of water at 37 °C |  |
|  | First | First | First | 38 (≈ 141 µM) | First | First | First | First | First | Second | First | First | First | First | stable | Cc1oncc1C(=O)Nc1ccc(C(F)(F)F)cc1 [first crystal modification, N-(4-trifluoromethylphenyl)-5-methylisoxazole-4-carboxamide] | 38 mg dissolved in 1 liter of water at 37 °C | same efficacy |
